SMILES strings stand for the structures.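 Interpolation was linear, between the two tested concentrations surrounding the appropriate level; five concentrations were tested over 48 hours in 96-well plates. The concentration for 50% growth inhibition is given as GI50. Definition used: TGI = concentration required for complete inhibition of growth.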

Some test systems named below: A549 NSCLC; HOP-62 NSCLC; MALME-3M melanoma; MDA-MB-231 breast; NCI-H23 lung; OVCAR-4 ovarian; PC-3 prostate; SR leukemia; U251 CNS; RPMI-8226 leukemia.
Holding throughout (assay): NCI-60 cell line screen, 48 h

Consider `Cc1c(COc2cc(OCc3cccc(C#N)c3)c(CN3C[C@H](O)C[C@@H]3C(=O)O)cc2Cl)cccc1-c1ccc2c(c1)OCCO2`, for which the GI50 was 22.1 µM in the assay on A549 NSCLC; 19.8 µM in the assay with HOP-62 NSCLC; 14.7 µM in the assay on MALME-3M melanoma; 13.8 µM in the assay with MDA-MB-231 breast; 16.9 µM with NCI-H23 lung; 24.7 µM in the assay on OVCAR-4 ovarian. The GI50 in the assay on PC-3 prostate was 2.54 µM; in the assay with SR leukemia, 2.65 µM; in the assay on U251 CNS it was 17.3 µM. In addition, the TGI came out at 55.3 µM in the assay with A549 NSCLC; 38.6 µM with HOP-62 NSCLC; 28.9 µM in the assay with MALME-3M melanoma; 29.6 µM in the assay with MDA-MB-231 breast; 31 µM in the assay on NCI-H23 lung; 61.4 µM with OVCAR-4 ovarian. Besides, the results for the TGI in the assay on PC-3 prostate, in the assay on SR leukemia and in the assay with U251 CNS were 7.7 µM, 8.95 µM and 47.3 µM, respectively.
With `CC1(C)[C@@H](O[C@@H]2OC[C@@H](O[C@@H]3O[C@H](CO)[C@@H](O)[C@H](O)[C@H]3O[C@@H]3OC[C@@H](O)[C@H](O)[C@H]3O)[C@H](O)[C@H]2O[C@@H]2O[C@H](CO)[C@@H](O)[C@H](O)[C@H]2O)CC[C@]2(C)[C@H]3CC[C@]45OC[C@@]6(CC[C@](C)(C=O)C[C@H]64)[C@H](O)C[C@@]5(C)[C@]3(C)CC[C@@H]12`, the GI50 in the assay on A549 NSCLC is 0.943 µM; with HOP-62 NSCLC, 0.898 µM; in the assay on MALME-3M melanoma it was 0.879 µM; in the assay on MDA-MB-231 breast it was 0.915 µM; with NCI-H23 lung, 0.984 µM; with OVCAR-4 ovarian, 0.794 µM. Besides, the GI50 in the assay on PC-3 prostate was 0.884 µM; in the assay on RPMI-8226 leukemia, 1.12 µM; in the assay on SR leukemia it was 0.185 µM; in the assay on U251 CNS, 0.99 µM. Besides, the TGI in the assay with A549 NSCLC came out at 1.95 µM; in the assay on HOP-62 NSCLC, 1.79 µM; with MALME-3M melanoma, 1.74 µM; with MDA-MB-231 breast it was 1.9 µM; in the assay with NCI-H23 lung, 2.12 µM; with OVCAR-4 ovarian it was 1.66 µM. Besides, the TGI in the assay on PC-3 prostate was 1.78 µM; in the assay with RPMI-8226 leukemia, 2.56 µM; in the assay on SR leukemia, 1.92 µM; with U251 CNS, 2.01 µM.
Regarding `Cn1ccnc1C(=O)/C=C/c1ccccc1`, the GI50 was 2.98 µM with A549 NSCLC; 4.44 µM with HOP-62 NSCLC; 12.3 µM in the assay on MALME-3M melanoma; 3.39 µM with MDA-MB-231 breast; 3.76 µM in the assay on NCI-H23 lung; 7.47 µM in the assay with OVCAR-4 ovarian. For the same compound, the GI50 with PC-3 prostate is 12.5 µM; with RPMI-8226 leukemia it was 2.91 µM; in the assay on SR leukemia it was 1.38 µM; with U251 CNS, 3.21 µM. For the same compound, the TGI in the assay on A549 NSCLC is 11.5 µM; with HOP-62 NSCLC, 14.4 µM; in the assay with MALME-3M melanoma, 27.9 µM; in the assay with MDA-MB-231 breast it was 16.8 µM; in the assay with NCI-H23 lung, 25.4 µM; in the assay with OVCAR-4 ovarian it was 26 µM. For the same compound, the TGI was 37.4 µM in the assay on PC-3 prostate, 8.97 µM in the assay on RPMI-8226 leukemia, 6.05 µM with SR leukemia and 13.9 µM in the assay on U251 CNS.
As to `N#CSCC1CC(O)(c2ccccc2)CC(c2ccc(F)cc2)O1` (stereo unspecified), the GI50 with A549 NSCLC was 3.86 µM; in the assay on HOP-62 NSCLC, 1.99 µM; in the assay with MALME-3M melanoma, 2.14 µM; in the assay on MDA-MB-231 breast, 1.97 µM; in the assay on NCI-H23 lung it was 2.02 µM; with OVCAR-4 ovarian, 2.42 µM. For the same compound, the GI50 with PC-3 prostate was 2.49 µM; in the assay on RPMI-8226 leukemia, 1.64 µM; in the assay with SR leukemia, 0.572 µM; in the assay on U251 CNS, 1.7 µM. For the same compound, the TGI in the assay on A549 NSCLC stood at 18.5 µM; with HOP-62 NSCLC it was 3.61 µM; in the assay with MALME-3M melanoma, 6.44 µM; in the assay on MDA-MB-231 breast, 4.2 µM; with NCI-H23 lung it was 5.32 µM; in the assay with OVCAR-4 ovarian, 8.08 µM. In addition, the TGI in the assay on PC-3 prostate is 8.38 µM; in the assay on RPMI-8226 leukemia, 4.65 µM; in the assay on SR leukemia it was 3.19 µM; with U251 CNS it was 3.13 µM.
Take `NC(=O)c1cc(-c2ccc(F)cc2)cc(-c2ccncc2)c1N`: the GI50 in the assay with A549 NSCLC, with HOP-62 NSCLC, in the assay on MALME-3M melanoma, in the assay with MDA-MB-231 breast, in the assay with NCI-H23 lung and in the assay with OVCAR-4 ovarian was over 25 µM in each case. The GI50 in the assay on PC-3 prostate, in the assay on RPMI-8226 leukemia, in the assay on SR leukemia and in the assay with U251 CNS was over 25 µM each time. Also, the TGI in the assay on A549 NSCLC, with HOP-62 NSCLC, in the assay on MALME-3M melanoma, in the assay on MDA-MB-231 breast, with NCI-H23 lung and in the assay on OVCAR-4 ovarian was over 25 µM each time. For the same compound, the TGI in the assay on PC-3 prostate, in the assay with RPMI-8226 leukemia, in the assay with SR leukemia and in the assay on U251 CNS was over 25 µM in each case.
In the case of `CC(=Nc1ccccc1)C1=C(O)C(Cc2ccccc2)NC1=O` (stereo unspecified), the GI50 in the assay on A549 NSCLC is 0.052 µM; in the assay on HOP-62 NSCLC it was 0.0435 µM; with MALME-3M melanoma, 0.018 µM; in the assay with MDA-MB-231 breast, 0.224 µM; with NCI-H23 lung, 0.0669 µM; with OVCAR-4 ovarian, 0.115 µM. Moreover, the GI50 in the assay with PC-3 prostate was 0.036 µM; with RPMI-8226 leukemia, 0.0515 µM; in the assay with SR leukemia, 0.0231 µM; with U251 CNS, 0.0373 µM. Further, the TGI with A549 NSCLC, in the assay with MALME-3M melanoma, in the assay on MDA-MB-231 breast, in the assay on NCI-H23 lung, with OVCAR-4 ovarian and with PC-3 prostate was over 100 µM in each case. Besides, the TGI with RPMI-8226 leukemia is over 100 µM; in the assay with SR leukemia, over 30.9 µM; in the assay with U251 CNS it was over 37.2 µM.
Turning to `COC(=O)CCCC(=O)O`, the TGI in the assay with A549 NSCLC, in the assay on HOP-62 NSCLC, with MALME-3M melanoma, in the assay on MDA-MB-231 breast, in the assay on NCI-H23 lung and in the assay with OVCAR-4 ovarian was over 100 µM each time. For the same compound, the TGI with PC-3 prostate, in the assay with SR leukemia and in the assay with U251 CNS was over 100 µM in each case.

The values above are taken from PubChem BioAssay (NCI).
